According to patent US20190353647A1, “NOVEL REAL-TIME MULTIPLEXED, MULTI-COLOR BIOLUMINESCENCE RESONANCE ENERGY TRANSFER ASSAY, APPARATUS, AND USES THEREOF” (Universite de Bordeaux, priority 2016, published 2019):

Molecular target: T1, TRPV1 (Homo sapiens, UniProt Q8NER1)
T1 construct: expressed in transfected cells; host or cells: HEK293T
Assay: Intermolecular BRET assay, TRPV1-Luc/YFP-CaM in HEK293T cells
Format: cell-based
Details: TRPV1-Luc/YFP-CaM
Excerpt: In order to generate the BRET constructs, super Yellow Fluorescent Protein 2 and Renilla Luciferase II were used to improve the brightness of the assay. They were referred as YFP and Luc for short in the rest of the manuscript. The cDNA of Luc and YFP were first cloned together using a three-piece ligation in the BamHI/XhoI site of pcDNA3.1(+) (Invitrogen, Carlsbad, Calif., USA), yielding two expression vectors pcDNA3.1 YFP-Luc where YFP was cloned in-fusion at the N-terminal of Luc, and pcDNA3.1 Luc-YFP where Luc was cloned in-fusion at the N-terminal of YFP. Both YFP and Luc were amplified by PCR from the pcDNA3-YFP-EPAC-Luc vector. Luc was cloned either at the N-terminal of YFP as a HindIII-EcoRI fragment (primers used: “Luc_HindIII_ATGN-term sense” and “Luc_no Stop_EcoRI_N-term antisense”) or at the COOH-terminal of YFP as an EcoRI-XhoI fragment (primer used: “Luc_EcoRI_ATG_C-term sense” and “Luc_XhoI_Stop_C-term antisense”). In parallel, YFP was cloned either at the N-terminal of Luc as a HindIII-EcoRI fragment (primers used: “YFP_HindIII_ATG_N-term sense” and “YFP_no Stop_EcoRI_N-term antisense”) or at the COOH-terminal of Luc as a EcoRI-XhoI fragment (primer used: “YFP_EcoRI_ATG_C-term sense” and “YFP_XhoI_Stop_C-term antisense”). The sequence joining Luc and YFP sequence encoded […] (SEQ ID NO: 18) as a linker, and contained an AgeI restriction site. The YFP-hTRPV1-Luc expression vector was obtained by subcloning the human TRPV1 cDNA from the pDONR201-hTRPV1 vector (Harvard Medical School PlasmID Repository, clone HsCD00081472) as an EcoRI PCR fragment in the EcoRI site of the vector pcDNA3.1 YFP-Luc (primer used: “hTRPV1_EcoRI_Fus_Sense” and “hTRPV1_EcoRI_Fus_antisense”). The hTRPV1-Luc expression vector was obtained by subcloning the cDNA of hTRPV1 as a HindIII-EcoRI fragment in place of the YFP in the HindIII-EcoRI site of the pcDNA3.1 YFP-Luc vector (primer used: “hTRPV1_HindIII_ATG_Sense” and “hTRPV1_EcoRI_Fus_antisense”). The Luc-hTRPV3 expression vector was obtained by subcloning the cDNA of hTRPV3 (Harvard Medical School PlasmID Repository, clone HsCD00341603) as a AgeI-XhoI fragment in place of the YFP in the AgeI-XhoI sites of the pcDNA3.1 Luc-YFP vector (primer used: “hTRPV3_AgeI_ATG_Sense” and “hTRPV3_Stop_XhoI_antisense”). The hTRPV4-Luc expression vector was obtained by subcloning the cDNA of hTRPV4 as a BamHI-AgeI fragment in place of the YFP in the BamHI-AgeI site of the pcDNA3.1 YFP-Luc vector (primer used: “hTRPV4_BamHI_ATG_Sense” and hTRPV4_AgeI_Fus_antisense”). In each case, the sequence joining the cDNA of interest and either Luc or YFP sequence encoded […] (SEQ ID NO: 18) as a linker.
The cDNA of mAmetrine (Plasmid #54660) and LssmOrange (Plasmid #37130) were obtained from AddGene plasmid repository. The cDNA of aquamarine, mAmetrine and LssmOrange were all subcloned as a HindIII-EcoRI fragment in place of the YFP in the HindIII-EcoRI site of the pcDNA3.1 YFP-Luc vector (primer used: “YFP_HindIII_ATG_N-term sense” and “YFP_no Stop_EcoRI_N-term antisense”) to yield pcDNA3.1 FP-Luc expression vectors (“FP” being any fluorescent protein between aquamarine, mAmetrine and LssmOrange). […] A similar strategy was used to obtain the FP-CaM expression vector using the pcDNA3.1 FP-Luc expression vector instead of the pcDNA3.1 YFP-Luc.
HEK293T cells were maintained in Dulbecco's modified Eagle's medium-high Glucose (DMEM) (D6429, Sigma) supplemented with 10% fetal bovine serum, 100 units mL-1 penicillin and streptomycin. Twenty-four hours before transfection, cells were seeded at a density of 500,000 cells in 6-well dishes. Transient transfections were performed using polyethylenimine (PEI, linear, Mr 25,000; catalogue number 23966 Polysciences, Inc., Warrington, Pa., USA) with a PEI:DNA ratio of 4:1. Usually, 0.1-0.25 μg of the donor constructions and 1.75-1.9 μg of the acceptors constructions were transfected for the BRET measurement.

T1 sequence (Q8NER1 whole entry): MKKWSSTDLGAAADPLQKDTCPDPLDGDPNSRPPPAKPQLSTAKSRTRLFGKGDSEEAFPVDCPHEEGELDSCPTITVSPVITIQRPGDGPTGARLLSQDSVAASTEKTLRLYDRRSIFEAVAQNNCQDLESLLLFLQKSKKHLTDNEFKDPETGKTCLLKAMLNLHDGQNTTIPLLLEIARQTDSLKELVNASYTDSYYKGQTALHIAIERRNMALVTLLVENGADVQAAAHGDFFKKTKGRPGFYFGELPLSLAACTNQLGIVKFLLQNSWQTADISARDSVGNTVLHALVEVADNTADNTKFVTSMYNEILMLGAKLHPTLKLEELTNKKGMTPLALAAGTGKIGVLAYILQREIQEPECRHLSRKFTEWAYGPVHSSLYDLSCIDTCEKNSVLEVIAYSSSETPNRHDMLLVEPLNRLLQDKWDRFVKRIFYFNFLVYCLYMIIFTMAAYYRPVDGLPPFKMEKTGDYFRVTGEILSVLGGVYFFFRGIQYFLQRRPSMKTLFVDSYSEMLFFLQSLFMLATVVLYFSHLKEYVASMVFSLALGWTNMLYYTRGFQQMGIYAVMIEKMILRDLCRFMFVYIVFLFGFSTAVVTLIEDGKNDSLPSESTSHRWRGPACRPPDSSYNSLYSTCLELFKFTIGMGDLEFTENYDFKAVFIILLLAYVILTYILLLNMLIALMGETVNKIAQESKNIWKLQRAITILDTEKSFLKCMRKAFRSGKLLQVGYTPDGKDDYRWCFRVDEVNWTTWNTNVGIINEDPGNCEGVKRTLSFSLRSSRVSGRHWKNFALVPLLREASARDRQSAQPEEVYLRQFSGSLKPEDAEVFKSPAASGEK

Structure (SMILES)	Change of basal BRET signal	Effect on CAPS-induced BRET increase (intermolecular test)
CC(=O)OCOC(=O)CN(CC(=O)OCOC(C)=O)c1ccccc1OCCOc1ccccc1N(CC(=O)OCOC(C)=O)CC(=O)OCOC(C)=O [BAPTA-AM]	severely diminished	abolished
C[C@H](CCC(=O)O)C[C@H](C)C[C@H](C)C(=O)/C=C(\O)[C@H](C)C[C@H](C)C/C=C/[C@@H](C)[C@@H](O)[C@@H](C)[C@@H](O)C[C@@H]1CC[C@@](C)([C@H]2CC[C@@](C)([C@@H](C)O)O2)O1 [ionomycin]	no effect	
